Measured values reported in publication PMC9504289 (Pharmaceuticals, 2022).
“And” between values parts separate entries of the source, which are not always exact repeats. Equal values may be shown once. Read-outs that look alike come from different tables or passages of the source.

Legend:
[1] = tested on: SARS-CoV-2 pseudovirus (orig. strain); test: microbe, parasite or virus in culture; format: cell-based; conditions: Severe acute respiratory syndrome-related coronavirus, HEK-293T, read-out: Inhibition of SARS-CoV-2 pseudovirus entry (orig. strain) IC50
[2] = tested on: HEK293T cells
Excerpt: Figure 8 Cytotoxicity assessment. MTS cytotoxicity assay (HEK293T cells) using the same conditions as for the activity assessment (Figure 7). Data (symbols) are average ± SD of three experiments in duplicates; TC50 values shown in the legend were obtained from fitting with standard sigmoid curves as before.

[3] = tested on: SARS-CoV-2; conditions: read-out: antiviral activity IC50 confirmed in a live viral or pseudoviral assay; cited from earlier work
[4] = molecular target: HCoV-NL63 S1 – hACE2 (Human coronavirus NL63, UniProt Q6Q1S2); test: biochemical; format: binding; conditions: for IC50: Inhibition of HCoV-NL63 S1 – hACE2 Binding: IC50
Sequence of HCoV-NL63 S1 – hACE2 (Q6Q1S2 19-717 limits assumed): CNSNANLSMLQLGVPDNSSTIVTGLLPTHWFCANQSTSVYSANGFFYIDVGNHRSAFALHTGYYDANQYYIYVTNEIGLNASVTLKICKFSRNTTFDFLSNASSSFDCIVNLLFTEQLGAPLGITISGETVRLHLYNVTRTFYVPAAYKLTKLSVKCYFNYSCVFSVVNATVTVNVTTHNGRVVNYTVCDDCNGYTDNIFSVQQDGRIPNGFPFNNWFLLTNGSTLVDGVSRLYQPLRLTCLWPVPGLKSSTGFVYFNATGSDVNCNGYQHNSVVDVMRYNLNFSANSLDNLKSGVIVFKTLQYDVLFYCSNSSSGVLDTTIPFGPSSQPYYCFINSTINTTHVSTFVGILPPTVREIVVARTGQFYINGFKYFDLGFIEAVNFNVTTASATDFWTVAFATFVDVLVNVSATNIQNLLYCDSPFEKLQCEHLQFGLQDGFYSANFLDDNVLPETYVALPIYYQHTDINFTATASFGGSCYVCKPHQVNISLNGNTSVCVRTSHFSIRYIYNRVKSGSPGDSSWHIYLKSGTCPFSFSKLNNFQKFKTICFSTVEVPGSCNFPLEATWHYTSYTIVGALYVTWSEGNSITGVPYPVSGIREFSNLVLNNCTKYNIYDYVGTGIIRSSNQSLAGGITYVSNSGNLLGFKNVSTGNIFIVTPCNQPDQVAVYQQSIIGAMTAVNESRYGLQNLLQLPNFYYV

[5] = tested on: SARS-CoV-2 pseudovirus (delta VoC); test: microbe, parasite or virus in culture; format: cell-based
[6] = tested on: SARS-CoV-2; conditions: read-out: IC50 for SARS-CoV-2 infection inhibition; cited from earlier work
[7] = molecular target: SARS-CoV-2-S; conditions: read-out: KD for binding to SARS-CoV-2-S; cited from earlier work
[8] = Severe acute respiratory syndrome-related coronavirus, HEK-293T, hACE2-expressing HEK293T, read-out: Inhibition of SARS-CoV-2 pseudovirus entry (delta VoC) IC50
[9] = same conditions as pseudovirus assay

Compound	IC50 ([1]; hACE2-expressing HEK293T) [µM]	IC50 [3] [µM]	IC50 [4]	IC50 [5, 8] [µM]	Cytotoxicity (HEK293T cells, MTS): TC50 [2, 9]	other results
Nc1c(/N=N/c2ccc(-c3ccc(/N=N/c4cc(S(=O)(=O)O)c5ccccc5c4N)cc3)cc2)cc(S(=O)(=O)O)c2ccccc12 [Congo red]	20.3	< 30	< 3 µM and 2.26 µM	3.07	–	Cytotoxicity (HEK293T cells, MTS): TC50 ([2]; same conditions as pseudovirus assay, listed as CgRd): 130 µM and 130.40 µM
O=C(Nc1ccc(-c2ccc(C(=O)Nc3cccc4cc(S(=O)(=O)O)ccc34)cc2)cc1)c1ccc([N+](=O)[O-])cc1 [DRI-C23041]	4.71	< 30	4.16 µM	5.42	> 1000.00 µM	loss of activity compared to the SARS-CoV assays [4]: 2–5 fold; IC50 ([5]; read-out: Inhibition of SARS-CoV-2 pseudovirus entry (delta VoC) IC50, hACE2-expressing HEK293T): 6.31 µM
O=C(Nc1ccc(-c2ccc(C(=O)Nc3cccc4c(S(=O)(=O)O)cccc34)cc2)cc1)c1ccc([N+](=O)[O-])cc1 [DRI-C24041]	6.58	–	6.54 µM	7.76	> 600 µM and 617.90 µM	loss of activity compared to the SARS-CoV assays [4]: 2–5 fold
O=C(Nc1ccc2cc(C(=O)Nc3cccc4cccc(S(=O)(=O)O)c34)ccc2c1)c1ccc([N+](=O)[O-])cc1 [DRI-C41041]	> 500	–	–	27.7	> 1000.00 µM	–
O=C(Nc1ccc(-c2ccc(C(=O)Nc3ccc(S(=O)(=O)O)c4cccc(S(=O)(=O)O)c34)cc2)cc1)c1ccc([N+](=O)[O-])cc1 [DRI-C2105041]	217	–	–	26.9	> 1000.00 µM	–
Nc1ccc2cc(S(=O)(=O)O)cc(O)c2c1/N=N/c1ccc(-c2ccc(/N=N/c3c(N)ccc4cc(S(=O)(=O)O)cc(O)c34)cc2)cc1 [Direct violet 1, direct violet 1]	35.8	< 30	< 3 µM and 2.29 µM	2.97	–	Cytotoxicity (HEK293T cells, MTS): TC50 ([2]; same conditions as pseudovirus assay, listed as DV1): 110 µM and 110.10 µM
Cc1cc(-c2ccc(/N=N/c3ccc4c(S(=O)(=O)O)cc(S(=O)(=O)O)c(N)c4c3O)c(C)c2)ccc1/N=N/c1ccc2c(S(=O)(=O)O)cc(S(=O)(=O)O)c(N)c2c1O [Evans blue]	–	< 30	< 3 µM and 2.6 µM	–	–	IC50 [6]: 28.1 µM; IC50 [1]: 16.6 µM; Kd [7]: 2.2 µM; Cytotoxicity (HEK293T cells, MTS): TC50 ([2]; same conditions as pseudovirus assay, listed as EvBl): 439 µM and 439.20 µM; IC50 ([5]; Severe acute respiratory syndrome-related coronavirus, HEK-293T, read-out: Inhibition of SARS-CoV-2 pseudovirus entry (delta VoC) IC50, hACE2-expressing HEK293T): 25.4 µM
Nc1c(/N=N/c2ccc([N+](=O)[O-])cc2)c(S(=O)(=O)O)cc2cc(S(=O)(=O)O)c(/N=N/c3ccccc3)c(O)c12 [Naphthol blue black, naphthol blue black]	> 500	–	58.7 µM	174	–	Cytotoxicity (HEK293T cells, MTS): TC50 ([2]; human): > 1000.00 µM
O=S(=O)(O)c1ccc(/N=N/c2c(O)ccc3cc(S(=O)(=O)O)ccc23)cc1 [Sunset yellow, sunset yellow FCF]	> 500	–	> 500 µM	> 500	–	Cytotoxicity (HEK293T cells, MTS): TC50 ([2]; human): > 1000.00 µM
C=C(C)[C@@H]1CCC(C)=C[C@H]1c1c(O)cc(CCCCC)c(C(=O)O)c1O [cannabidiolic acid]	–	< 30	–	–	–	–
CCCCCc1cc(O)c(C/C=C(\C)CCC=C(C)C)c(O)c1C(=O)O [cannabigerolic acid]	–	< 30	–	–	–	–
verteporfin	–	< 30	–	–	–	–
